# Measured values reported in ChEMBL document CHEMBL1667837, “Structure and property based design, synthesis and biological evaluation of γ-lactam based HDAC inhibitors” (Bioorg Med Chem Lett, 2011).
# What was measured:
# [1] = Inhibition of HDAC by fluorescence assay
# PC-3 = test: Cytotoxicity against human PC3 cells; format: functional
# MDA-MB-231 = test: Cytotoxicity against human MDA-MB-231 cells; format: functional
# ACHN = test: Cytotoxicity against human ACHN cells; format: functional
# HCT-15 = test: Cytotoxicity against human HCT15 cells; format: functional
# NCI-H23 = test: Cytotoxicity against human NCI-H23 cells; format: functional
# LOX IMVI = test: Cytotoxicity against human LOXIMVI cells; format: functional
# NUGC-3 = test: Cytotoxicity against human NUGC3 cells; format: functional
# [2] = Metabolic stability in ICR mouse liver microsomes assessed as compound remaining at 1 uM after 60 mins in absence of NADPH; format: ADME, Microsome; details: read-out: Stability
# [3] = Metabolic stability in ICR mouse liver microsomes assessed as compound remaining at 1 uM after 60 mins in presence of NADPH; format: ADME, Microsome; details: read-out: Stability
# [4] = Apparent permeability across human Caco2 cells; format: ADME, cell-based; details: Caco-2
# [5] = Metabolic stability in ICR mouse liver microsomes assessed as compound remaining at 1 uM after 60 mins in presence of buffer; format: ADME, Microsome; details: read-out: Stability
# [6] = Inhibition of HDAC assessed as increase of histone H3 acetylation
# [7] = Inhibition of HDAC assessed as increase of histone H4 acetylation
# HCT-116 [8] = test: Antitumor activity against human HCT116 cells xenografted in nude mouse assessed as reduction of tumor volume at 30 mg/kg, ip for 20 days (reference value: 369.8 mm'3); format: functional; details: route intraperitoneal
# Histone deacetylase 1 = Histone deacetylase 1 (Homo sapiens, UniProt Q13547); test: Inhibition of HDAC1 by fluorescence assay
# Sequence of Histone deacetylase 1 (Q13547 whole entry): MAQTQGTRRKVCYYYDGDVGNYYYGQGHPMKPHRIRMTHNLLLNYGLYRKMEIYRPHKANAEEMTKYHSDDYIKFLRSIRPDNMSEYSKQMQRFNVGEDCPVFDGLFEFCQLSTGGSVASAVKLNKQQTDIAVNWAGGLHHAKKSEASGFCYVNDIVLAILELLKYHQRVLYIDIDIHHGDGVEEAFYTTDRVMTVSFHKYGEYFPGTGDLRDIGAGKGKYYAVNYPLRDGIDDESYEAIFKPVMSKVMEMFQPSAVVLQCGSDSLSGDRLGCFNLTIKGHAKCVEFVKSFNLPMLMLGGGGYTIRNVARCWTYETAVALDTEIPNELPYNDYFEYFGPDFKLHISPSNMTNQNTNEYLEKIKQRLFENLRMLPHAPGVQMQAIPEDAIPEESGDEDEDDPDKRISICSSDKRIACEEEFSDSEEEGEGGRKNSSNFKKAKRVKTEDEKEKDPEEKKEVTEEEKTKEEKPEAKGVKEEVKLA
# Histone deacetylase 2 = Histone deacetylase 2 (Homo sapiens, UniProt Q92769); test: Inhibition of HDAC2 by fluorescence assay
# Sequence of Histone deacetylase 2 (Q92769 whole entry): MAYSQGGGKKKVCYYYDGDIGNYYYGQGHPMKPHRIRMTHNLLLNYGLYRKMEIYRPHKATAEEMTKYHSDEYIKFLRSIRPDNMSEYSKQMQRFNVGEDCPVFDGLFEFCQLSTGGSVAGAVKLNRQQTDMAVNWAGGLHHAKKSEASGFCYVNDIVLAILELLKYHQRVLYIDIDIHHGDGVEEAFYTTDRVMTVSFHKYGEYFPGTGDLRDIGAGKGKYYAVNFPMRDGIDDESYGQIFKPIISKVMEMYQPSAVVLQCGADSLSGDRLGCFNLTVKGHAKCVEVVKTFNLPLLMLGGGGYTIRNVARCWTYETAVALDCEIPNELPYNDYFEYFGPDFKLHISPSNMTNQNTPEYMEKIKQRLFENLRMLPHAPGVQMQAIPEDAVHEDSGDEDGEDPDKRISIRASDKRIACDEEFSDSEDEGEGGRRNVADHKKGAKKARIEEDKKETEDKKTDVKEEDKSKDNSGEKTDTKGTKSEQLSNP
# Histone deacetylase 3 = Histone deacetylase 3 (Homo sapiens, UniProt O15379)
# Sequence of Histone deacetylase 3 (O15379 whole entry): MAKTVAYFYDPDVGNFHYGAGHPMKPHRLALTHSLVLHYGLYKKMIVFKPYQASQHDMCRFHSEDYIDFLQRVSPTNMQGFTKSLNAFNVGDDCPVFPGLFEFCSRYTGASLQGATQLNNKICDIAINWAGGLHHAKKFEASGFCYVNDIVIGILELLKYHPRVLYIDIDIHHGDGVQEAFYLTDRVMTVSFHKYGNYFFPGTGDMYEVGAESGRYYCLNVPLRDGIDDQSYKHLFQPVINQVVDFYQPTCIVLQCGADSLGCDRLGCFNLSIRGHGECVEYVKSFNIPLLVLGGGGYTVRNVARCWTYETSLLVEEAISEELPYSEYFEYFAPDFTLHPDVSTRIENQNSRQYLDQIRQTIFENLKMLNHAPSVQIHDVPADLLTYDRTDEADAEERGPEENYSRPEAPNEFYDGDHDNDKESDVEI
# Histone deacetylase 8 = target: T1, Histone deacetylase 8 (Homo sapiens, UniProt Q9BY41); test: Inhibition of HDAC8 by fluorescence assay
# T1 sequence (Q9BY41 whole entry): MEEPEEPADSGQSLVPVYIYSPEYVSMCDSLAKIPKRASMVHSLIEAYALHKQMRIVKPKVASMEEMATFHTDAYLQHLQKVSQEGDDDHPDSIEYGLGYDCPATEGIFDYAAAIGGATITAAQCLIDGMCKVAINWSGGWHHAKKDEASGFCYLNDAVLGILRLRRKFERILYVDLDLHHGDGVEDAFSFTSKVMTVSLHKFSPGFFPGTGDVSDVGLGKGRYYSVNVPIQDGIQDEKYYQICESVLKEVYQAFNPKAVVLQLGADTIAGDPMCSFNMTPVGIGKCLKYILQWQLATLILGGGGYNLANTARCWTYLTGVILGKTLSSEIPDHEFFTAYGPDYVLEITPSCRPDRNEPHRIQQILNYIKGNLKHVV
# [9] = AUC (0 to infinity) in BALB/c mouse at 5 mg/kg, iv; format: ADME, organism-based; set-up: time infinity, dose 5 mg/kg, route intravenous; details: plasma
# [10] = Clearance in BALB/c mouse at 5 mg/kg, iv; format: ADME, organism-based; set-up: dose 5 mg/kg, route intravenous; details: in vivo
# [11] = Volume of distribution at steady state in BALB/c mouse at 5 mg/kg, iv; format: ADME, organism-based; set-up: dose 5 mg/kg, route intravenous; details: in vivo, read-out: Vdss
# [12] = Half life in BALB/c mouse at 5 mg/kg, iv; format: ADME, organism-based; set-up: dose 5 mg/kg, route intravenous; details: in vivo
# [13] = Tmax in BALB/c mouse at 20 mg/kg, po; format: ADME, organism-based; set-up: dose 20 mg/kg, route oral; details: in vivo
# [14] = Cmax in BALB/c mouse at 20 mg/kg, po; format: ADME, organism-based; set-up: dose 20 mg/kg, route oral; details: in vivo
# [15] = AUC (0 to 5 hrs) in BALB/c mouse at 20 mg/kg, po; format: ADME, organism-based; set-up: time < 4 hr, dose 20 mg/kg, route oral; details: plasma
# [16] = Half life in BALB/c mouse at 20 mg/kg, po; format: ADME, organism-based; set-up: dose 20 mg/kg, route oral; details: in vivo
# [17] = Oral bioavailability in BALB/c mouse at 20 mg/kg; format: ADME, organism-based; details: in vivo
# HCT-116 [18] = test: Antitumor activity against human HCT116 cells xenografted in nude mouse assessed as inhibition of tumor growth at 30 mg/kg, ip for 20 days relative to control; format: functional; set-up: scale not given: the % may be the effect or the level left; details: route intraperitoneal
# Mus musculus = test: Toxicity in human HCT116 cells xenografted nude mouse assessed as change in body weight at 30 mg/kg, ip for 20 days; format: organism-based, HCT-116; set-up: dose 30 mg/kg, route intraperitoneal; details: in vivo, 480 h
# [19] = target: T2, Protein deacetylase HDAC6 (Homo sapiens, UniProt Q9UBN7)
# T2 sequence (Q9UBN7 whole entry): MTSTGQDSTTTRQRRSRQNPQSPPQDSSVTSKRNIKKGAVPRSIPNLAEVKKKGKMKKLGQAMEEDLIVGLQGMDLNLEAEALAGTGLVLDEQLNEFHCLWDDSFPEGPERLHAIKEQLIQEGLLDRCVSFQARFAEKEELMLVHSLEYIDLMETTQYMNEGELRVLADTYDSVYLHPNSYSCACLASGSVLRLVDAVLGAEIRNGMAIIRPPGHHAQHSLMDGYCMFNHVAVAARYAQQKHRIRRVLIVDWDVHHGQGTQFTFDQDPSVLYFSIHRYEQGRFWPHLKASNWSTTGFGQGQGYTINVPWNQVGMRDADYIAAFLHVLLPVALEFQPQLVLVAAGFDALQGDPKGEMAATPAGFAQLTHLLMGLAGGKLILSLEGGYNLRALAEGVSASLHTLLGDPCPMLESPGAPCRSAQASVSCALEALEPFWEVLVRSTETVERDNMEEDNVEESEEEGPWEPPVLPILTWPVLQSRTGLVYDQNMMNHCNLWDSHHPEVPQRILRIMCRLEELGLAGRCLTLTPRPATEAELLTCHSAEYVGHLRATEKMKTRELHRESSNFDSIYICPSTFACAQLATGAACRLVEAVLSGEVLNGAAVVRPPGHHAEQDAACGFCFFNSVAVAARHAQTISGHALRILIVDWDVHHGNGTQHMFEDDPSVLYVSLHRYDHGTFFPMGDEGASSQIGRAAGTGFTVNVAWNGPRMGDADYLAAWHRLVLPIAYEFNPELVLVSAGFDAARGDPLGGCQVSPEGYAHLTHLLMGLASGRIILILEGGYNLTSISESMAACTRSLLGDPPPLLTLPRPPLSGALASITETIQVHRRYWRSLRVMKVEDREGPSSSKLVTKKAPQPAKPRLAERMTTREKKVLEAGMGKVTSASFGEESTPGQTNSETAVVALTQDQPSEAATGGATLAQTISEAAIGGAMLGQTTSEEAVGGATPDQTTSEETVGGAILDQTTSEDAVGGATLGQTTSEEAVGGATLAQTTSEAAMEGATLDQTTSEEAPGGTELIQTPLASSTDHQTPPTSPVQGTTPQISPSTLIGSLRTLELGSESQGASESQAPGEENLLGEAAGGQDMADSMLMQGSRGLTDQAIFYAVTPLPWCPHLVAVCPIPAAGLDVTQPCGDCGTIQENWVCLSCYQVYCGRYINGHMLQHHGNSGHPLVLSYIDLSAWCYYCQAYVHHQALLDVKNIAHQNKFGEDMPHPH
smiles,measurement,setting,value
O=C(CCC1=CCCN(Cc2ccccc2)C1=O)NO,IC50,[1],0.67 µM
same,GI50,PC-3,30 µM
same,GI50,MDA-MB-231,4.26 µM
same,GI50,ACHN,30 µM
same,GI50,HCT-15,30 µM
same,GI50,NCI-H23,30 µM
same,GI50,LOX IMVI,30 µM
O=C(CCC1=CCN(CCc2cccc3ccccc23)C1=O)NO,IC50,[1],0.36 µM
same,GI50,PC-3,5.76 µM
same,GI50,MDA-MB-231,4.76 µM
same,GI50,ACHN,6.41 µM
same,GI50,HCT-15,6.78 µM
same,GI50,NCI-H23,5.13 µM
same,GI50,NUGC-3,5.23 µM
same,GI50,LOX IMVI,3.71 µM
same,"remaining at 1 h, 1 µM",[2],15.1%
same,"remaining at 1 h, 1 µM",[3],3.9%
O=C(CCC1=CCN(Cc2ccccc2)C1=O)NO,IC50,[1],0.8 µM
same,GI50,PC-3,30 µM
same,GI50,MDA-MB-231,4.73 µM
same,GI50,ACHN,30 µM
same,GI50,HCT-15,30 µM
same,GI50,NCI-H23,30 µM
same,GI50,LOX IMVI,30 µM
O=C(CCC1=CCCN(CCCc2ccccc2)C1=O)NO,IC50,[1],0.27 µM
same,GI50,PC-3,6.98 µM
same,Papp,[4],17.5 ×10⁻⁶ cm/s
O=C(CCC1=CCCN(Cc2ccc3ccccc3c2)C1=O)NO,IC50,[1],30 µM
same,GI50,PC-3,30 µM
same,GI50,MDA-MB-231,4.07 µM
same,GI50,ACHN,6.09 µM
same,GI50,HCT-15,6.82 µM
same,GI50,NCI-H23,30 µM
same,GI50,LOX IMVI,30 µM
O=C(CCC1=CCCN(CCc2ccc3ccccc3c2)C1=O)NO,IC50,[1],0.04 µM
same,GI50,PC-3,0.56 µM
same,GI50,MDA-MB-231,0.45 µM
same,GI50,ACHN,0.61 µM
same,GI50,HCT-15,0.79 µM
same,GI50,NCI-H23,0.54 µM
same,GI50,NUGC-3,0.42 µM
same,GI50,LOX IMVI,0.56 µM
same,Papp,[4],19.1 ×10⁻⁶ cm/s
same,"remaining at 1 h, 1 µM",[2],31%
same,"remaining at 1 h, 1 µM",[3],10.3%
same,"remaining at 1 h, 1 µM",[5],99.1%
O=C(CCC1=CCN(CCc2ccc3ccccc3c2)C1=O)NO,IC50,[1],0.05 µM
same,GI50,PC-3,0.34 µM
same,GI50,MDA-MB-231,0.59 µM
same,GI50,ACHN,0.63 µM
same,GI50,HCT-15,0.84 µM
same,GI50,NCI-H23,0.5 µM
same,GI50,NUGC-3,0.8 µM
same,GI50,LOX IMVI,0.61 µM
same,"remaining at 1 h, 1 µM",[2],46.6%
same,"remaining at 1 h, 1 µM",[3],29.7%
O=C(CCC1=CCCN(CCc2ccccc2)C1=O)NO,IC50,[1],0.35 µM
same,GI50,PC-3,9.84 µM
same,GI50,MDA-MB-231,1.62 µM
same,GI50,ACHN,7.76 µM
same,GI50,HCT-15,8.16 µM
same,GI50,NCI-H23,30 µM
same,GI50,LOX IMVI,5.84 µM
CC(/C=C/C(=O)NO)=C\[C@@H](C)C(=O)c1ccc(N(C)C)cc1,inhibition,[6],Dose-dependent effect
same,inhibition,[7],Dose-dependent effect
O=C(CCC1=CCN(Cc2ccc3ccccc3c2)C1=O)NO,IC50,[1],0.15 µM
same,GI50,PC-3,4.88 µM
same,GI50,MDA-MB-231,1.22 µM
same,GI50,ACHN,1.39 µM
same,GI50,HCT-15,3.54 µM
same,GI50,NCI-H23,5.19 µM
same,GI50,LOX IMVI,7.98 µM
O=C(CCC1=CCN(CCCc2ccccc2)C1=O)NO,IC50,[1],0.05 µM
same,GI50,PC-3,3.91 µM
same,GI50,MDA-MB-231,3.81 µM
same,GI50,ACHN,4.24 µM
same,GI50,HCT-15,6.23 µM
same,GI50,NCI-H23,3.46 µM
same,GI50,NUGC-3,2.6 µM
same,GI50,LOX IMVI,4.52 µM
same,Papp,[4],9.5 ×10⁻⁶ cm/s
same,"remaining at 1 h, 1 µM",[2],66.3%
same,"remaining at 1 h, 1 µM",[3],66.6%
O=C(CCC1=CCN(CCc2ccccc2)C1=O)NO,IC50,[1],0.12 µM
same,GI50,PC-3,4.43 µM
same,GI50,MDA-MB-231,0.99 µM
same,GI50,ACHN,1.08 µM
same,GI50,HCT-15,5.37 µM
same,GI50,NCI-H23,4.29 µM
same,GI50,LOX IMVI,30 µM
O=C(CCC1=CCCN(CCc2cccc3ccccc23)C1=O)NO,IC50,[1],0.32 µM
O=C(CCC1=CCCN(CCCc2ccc3ccccc3c2)C1=O)NO,IC50,[1],0.14 µM
same,GI50,PC-3,3.77 µM
same,GI50,MDA-MB-231,4.7 µM
same,GI50,ACHN,5.78 µM
O=C(CCC1=CCN(CCCc2ccc3ccccc3c2)C1=O)NO,IC50,[1],0.01 µM
same,GI50,PC-3,1.09 µM
same,GI50,MDA-MB-231,0.65 µM
same,GI50,ACHN,0.65 µM
same,GI50,HCT-15,0.78 µM
same,GI50,NCI-H23,0.61 µM
same,GI50,NUGC-3,0.61 µM
same,GI50,LOX IMVI,0.82 µM
same,Activity,HCT-116 [8],242.2 mm3
same,IC50,Histone deacetylase 1,25.6 µM
same,IC50,Histone deacetylase 2,16.4 µM
same,IC50,Histone deacetylase 3,80.1 µM
same,IC50,Histone deacetylase 8,120 µM
same,inhibition,[6],Dose-dependent effect
same,inhibition,[7],Dose-dependent effect
same,Papp,[4],16.3 ×10⁻⁶ cm/s
same,"remaining at 1 h, 1 µM",[2],71.1%
same,"remaining at 1 h, 1 µM",[3],43.1%
same,"remaining at 1 h, 1 µM",[5],97.2%
same,AUC(0-inf),[9],890 ng·h/mL
same,clearance,[10],93.7 mL/min/kg
same,Vd,[11],0.85 L/kg
same,half-life,[12],9 min
same,Tmax,[13],15 min
same,Cmax,[14],813 ng/mL
same,AUC(0-t) at 4 h,[15],309 ng·h/mL
same,half-life,[16],38.4 min
same,bioavailability,[17],8.7%
same,Activity,HCT-116 [18],34.4%
same,Activity,Mus musculus,Non-toxic
same,IC50,[19],0.8 µM
